Laboratory results: patent US5026687A (priority 1990, dated 1991)
Entries after “also recorded” stand apart in the source; their conditions may differ.

Legend:
[1] = test system: HIV (cytopathic effect, ATH8 T cell line); test: Protection of ATH8 T cell line against cytopathic effect of HIV (synergy of combinations); assay type: cell-based, human immunodeficiency virus; settings: in vitro
[2] = test system: patients with HIV infection; settings: in vivo; cited from earlier work
[3] = Conversion of 2',3'-dideoxyadenosine in patients; assay type: in vivo, human
Description: In addition to the 37 patients mentioned above, another 20 patients have been treated for a total of 57.

[4] = beagle dog; previously shown; cited from earlier work
[5] = even low doses, after patient has developed pancreatitis; cited from earlier work
HIV p24 gag production = settings: with 2',3'-dideoxyinosine, T-cell line
HIV = test: Serum HIV p24 antigen and HIV load in treated patients; assay type: in vivo
[6] = test system: patients with AIDS or AIDS-related complex; test: Immune parameters (circulating CD4+, CD8+, total lymphocytes, CD4+:CD8+ ratio) in treated patients; assay type: in vivo, human
retroviral replication = settings: cited from earlier work
clinical = settings: human, in vivo, iv, 3.2 mg/kg
[7] = human, in vivo
[8] = human, in vivo; remark: listed apart in the source
[9] = test system: patients with AIDS or AIDS-related complex; test: Clinical improvement (well being, energy, weight, duration of benefit) in treated patients; assay type: in vivo, human
Description: Other patients had fatigue, loss of appetite, fevers, or recent weight loss. Many of these patients could not tolerate therapy with 3'-azido-2',3'-dideoxythymidine (AZT, zidovudine) because of nausea, malaise, or bone marrow toxicity, or were clinically deteriorating while on AZT treatment.

anergic patients = test: Cutaneous delayed type hypersensitivity reaction (skin test reactivity) of anergic patients; assay type: in vivo, human
[10] = test system: human immunodeficiency virus-associated neurological dysfunction; test: Cognitive function in patients with HIV-associated neurological dysfunction
HIV-infected patients = test: Combination therapy of patients with 2',3'-dideoxyinosine and other agents; assay type: in vivo, human
Description: Examples of such therapies are disclosed in the following examples.
These two drugs are alternated in this manner about week-by-week for about one year. […] These two drugs are alternated about week-by-week for about 6 months.

[11] = human, in vivo; remark: listed apart in the source
[12] = about 1 to 7 mg/kg/day intravenously then about 2 to 14 mg/kg/day orally
[13] = patients with HIV infection, intravenous or oral
[14] = with gancyclovir about 500 mg/day iv, 2 weeks

Cc1cn([C@H]2C[C@H](N=[N+]=[N-])[C@@H](CO)O2)c(=O)[nH]c1=O [AZT, 3'-azido-2',3'-dideoxythymidine]
synergy with 2',3'-dideoxyinosine, protection of ATH8 against cytopathic effect of HIV [1]: synergistic | hepatic dysfunction [2]: can cause hepatic dysfunction | pancreatitis or peripheral neuropathy [2]: not known to cause pancreatitis or a peripheral neuropathy | toxicities and side effects [2]: anemia, other bone marrow suppression, and certain other toxicities such as myositis (muscle destruction or inflammation), headaches, nausea, vomiting, malaise, or seizures

Nc1ncnc2c1ncn2[C@H]1CC[C@@H](CO)O1 [2',3'-dideoxyadenosine]
conversion to 2',3'-dideoxyinosine [3]: rapidly converted to 2',3'-dideoxyinosine | oral bioavailability [4]: can be orally bioavailable

Sc1ncnc2nc[nH]c12 [6-mercaptopurine]
pancreatitis on re-administration [5]: causes pancreatitis that returns acutely

NC(=O)c1ncn([C@@H]2O[C@H](CO)[C@@H](O)[C@H]2O)n1 [Ribavirin]
effect on the anti-HIV effect of 2',3'-dideoxyinosine (HIV p24 gag production) (HIV p24 gag production): induce enhancement of the anti-HIV effect

OC[C@@H]1CC[C@H](n2cnc3c(O)ncnc32)O1 [2',3'-dideoxyinosine]
replication of HIV (HIV; 35 evaluable patients): a decrease in the replication in their HIV | patients with no detectable serum HIV p24 antigen (HIV; after about one year, about 6.4 to 9.6 mg/kg/day oral): two | serum HIV p24 antigen (change) (HIV; by week 6, about 1 to 7 mg/kg/day iv then about 2 to 14 mg/kg/day orally, patients with detectable p24): substantial decreases in their serum HIV p24 antigen | patients with decline in serum HIV p24 antigen (HIV; first 6 weeks, about 6.4 to 9.6 mg/kg/day orally, 3 patients with detectable p24 before therapy): All 3 had a decline | reduction of p24 antigen detectable in serum (HIV; intravenous or oral route): a reduction of the amount of p24 antigen | serum HIV p24 antigen in patients viremic in the face of AZT (HIV; patients viremic in the face of AZT therapy): a fall in serum HIV p24 antigen | load of HIV in circulating lymphocytes by polymerase chain reaction (HIV; while receiving 2',3'-dideoxyinosine): a decrease in the load of HIV in their circulating lymphocytes | patients still having increases in circulating CD4+ lymphocytes ([6]; 3.2 to 4.8 mg/kg/day iv about 2 weeks, then about 6.4 to 9.6 mg/kg/day orally, about one year): 4 of the first 7 patients | number of circulating CD4+ lymphocytes (change) [6, 12]: substantial increases in the number of circulating CD4+ lymphocytes | number of circulating CD8+ lymphocytes (change) [6, 12]: increases in the number of circulating CD8+ lymphocytes | number of circulating total lymphocytes (change) [6, 12]: increases in the number of circulating total lymphocytes | time within which lymphocyte changes were observed ([6]; about 2 to 14 mg/kg/day orally after intravenous, within about): ≤ 2 weeks | immune parameters improvement ([6]; below 2 mg/kg/day orally): not as consistently seen | duration of lymphocyte changes ([6]; in many cases, about 2 to 14 mg/kg/day orally): at least one | immune function ([6]; intravenous or oral route, long periods of time): improvement in immune function | immune parameters improvement ([6]; more than 14 mg/kg/day orally, some patients): improvements in immune parameters | CD4+ lymphocytes after treatment ([6]; one patient, baseline about 31, 1.6 mg/kg/day iv about 2 weeks, then oral 3.2 (10 weeks), 4.8 (21 weeks), 9.6 mg/kg/day (31 weeks)): about 90 CD4+ lymphocytes/mm^3 | CD4+ increases by prior AZT therapy ([6]; patients who had previously received 4 months or less of AZT): most consistently seen | number of circulating CD4+ lymphocytes (change) [6, 13]: an increase in the number of circulating CD4+ lymphocytes; also recorded: increases in their circulating CD4+ cells | number of circulating CD8+ lymphocytes (change) [6, 13]: an increase in the number of CD8+ lymphocytes; also recorded: increases in the number of CD8+ lymphocytes | number of circulating total lymphocytes (change) [6, 13]: an increase in the number of circulating total lymphocytes; also recorded: increases in the number of total lymphocytes | CD8+ lymphocytes after treatment ([6]; same first patient, baseline 189): about 302 CD8+ lymphocytes/mm^3 | total lymphocytes after treatment ([6]; same first patient, baseline 405): about 816 total lymphocytes/mm^3 | CD8+ lymphocytes after treatment ([6]; second patient, baseline 844, about one year): about 1256 CD8+ lymphocytes/mm^3 | total lymphocytes after treatment ([6]; second patient, baseline 1270, about one year): about 1794 total lymphocytes/mm^3 | CD4+ lymphocytes after treatment ([6]; second patient, baseline about 219, 4.8 mg/kg/day iv about 2 weeks then 9.6 mg/kg/day oral, about one year): about 359 CD4+ lymphocytes/mm^3 | suppression of retroviral replication (retroviral replication): known to suppress retroviral replication | Cmax (clinical): ~10 µM | half-life (clinical): ~40 min | oral absorption and pharmacokinetics on chronic administration (chronic oral administration in a given person): remain fairly constant | oral absorption, non-fasting (oral, patient not in a fasting state): effectively absorbed | pancreatitis [7]: can definitely cause pancreatitis | time for amylase to return to about normal [7]: about one | evidence of pancreatitis after restart ([7]; 6.4 mg/kg/day): no evidence of pancreatitis | recurrence of pancreatitis after restart ([7]; po, 6.4 mg/kg/day): did not recur | serum amylase after restart ([7]; po, 6.4 mg/kg/day): 80 U/liter | clinical symptoms of pancreatitis ([7]; po, 9.6 mg/kg/day): no clinical symptoms of pancreatitis | cumulative dose exceeded without neuropathy appearing [8]: > 1.5 gm/kg | neuropathy after prompt stopping in warning phase [8]: the neuropathy subsided | synergy with dextran sulfate, protection of ATH8 against cytopathic effect of HIV ([1]; with dextran sulfate): synergistic | clinical improvement ([9]; 35 evaluable patients): clinical improvement | patients reporting an improvement in well being ([9]; 37 patients, increase in energy, decreased sleep requirements, or increased appetite): approximately one half of the 37 patients | patients in whom the beneficial changes were seen ([9]; about 2 to 14 mg/kg/day orally with buffers or antacid): nearly all of the patients | persistence of clinical improvements ([9]; about 2 to about 14 mg/kg/day orally with antiacids or buffers): can persist over at least a year's period of time | average weight gain ([9]; first 6 weeks of therapy): 1.5 kg | energy (change) ([9]; intravenous or oral route): an increase in energy | weight (change) ([9]; intravenous or oral route): an increase in weight | anergic patients developing skin test reactivity to at least one test antigen (anergic patients; after approximately 6 weeks of therapy): 7 of these 23 (anergic patients | cutaneous delayed type hypersensitivity reaction of anergic patients (anergic patients; some patients): regained the ability to mount a cutaneous delayed type hypersensitivity reaction to at least one test antigen | patients with improved cognitive function ([10]; 6 to 10 weeks of therapy, memory, speed and precision of doing tasks): 4 patients | cognitive dysfunction associated with HIV infection ([10]; intravenous or oral route): an improvement in cognitive dysfunction | memory quotient ([10]; one patient, about 9.6 mg/kg/day orally in 3 doses, from 111, after 6 weeks): 121 | outcome of combination with AZT (HIV-infected patients; AZT 300 mg/day with ddI 3.2 mg/kg/day, or AZT 600 mg/day alternating weekly with ddI 6.4 mg/kg/day, about one year): Beneficial effects are seen | outcome of combination with ddC (HIV-infected patients; ddC 0.015 mg/kg/day with ddI 3.2 mg/kg/day, or ddC 0.03 mg/day alternating weekly with ddI 6.4 mg/kg/day, about 6 months): Beneficial effects are seen | outcome of combination with ribavirin (HIV-infected patients; ddI 3.2 mg/kg/day orally, ribavirin 100 to 2400 mg/day orally, about 6 months): Beneficial effects are seen | clinical course with pentamidine prophylaxis (HIV-infected patients; ddI 4.8 mg/kg/day iv 2 weeks then 9.6 mg/kg/day orally 56 weeks, 300 mg pentamidine isothionate inhaled monthly): clinically did well | outcome of combination with dextran sulfate (HIV-infected patients; ddI 6.4 mg/kg/day orally, dextran sulfate 2700 mg/day iv, about 6 months): Beneficial effects are seen | outcome of combination with rCD4 (HIV-infected patients; ddI 6.4 mg/kg/day orally, rCD4 300 μg/kg/day iv, 1 year): Beneficial effects are seen | outcome of combination with interferon alpha (HIV-infected patients; ddI 1 to 14 mg/kg/day orally with 0.5 to 10 million units interferon alpha daily, about 3 months, Kaposi's sarcoma): Beneficial effects are seen | outcome of combination with IL-2 (HIV-infected patients; ddI 1 to 14 mg/kg/day orally with 25,000 to 1 million U/day IL-2, about 3 months): Beneficial effects are seen | development of Pneumocystis carinii pneumonia (HIV-infected patients; with 300 mg pentamidine isothionate inhaled monthly, about 56 weeks): did not develop Pneumocystis carinii pneumonia | recurrence of cytomegalovirus retinitis (HIV-infected patients; with acyclovir 4800 mg/day, 4 weeks): the retinitis has not recurred | increase in weight (HIV-infected patients; [14]): about 2.2 kg | recurrence of cytomegalovirus retinitis (HIV-infected patients; [14]): has not had a recurrence of the retinitis | patient's report (HIV-infected patients; with gancyclovir about 500 mg/day iv, ddI 6.4 mg/kg/day orally, 2 weeks): reports feeling better | hepatitis after discontinuation [11]: the hepatitis resolved | recurrence of hepatitis after restart ([11]; po, 6.4 mg/kg/day): did not recur

Nc1ccn([C@H]2CC[C@@H](CO)O2)c(=O)n1 [2',3'-Dideoxycytidine]
synergy with 2',3'-dideoxyinosine, protection of ATH8 against cytopathic effect of HIV [1]: synergistic
